# In PMC8146883, “A New Thermophilic Ene-Reductase from the Filamentous Anoxygenic Phototrophic Bacterium Chloroflexus aggregans” (Microorganisms, 2021):
# Molecular target: T1, CaOYE (Chloroflexus aggregans, UniProt B8G5D6)
# T1 construct: gene Cagg_2779; full-length ORF in pET-28a(+) (NdeI/BamHI), N-terminal His6-tag, E. coli BL21(DE3); model visible Met1 to Trp354; monomer in solution, dimer in crystal
# Assay: X-ray crystal structure, […] Å
# Assay type: binding
# Conditions: non-covalent, active site; crystals from 100 mM HEPES pH 7.0, 1.1 M sodium malonate
# T1 sequence (B8G5D6 whole entry): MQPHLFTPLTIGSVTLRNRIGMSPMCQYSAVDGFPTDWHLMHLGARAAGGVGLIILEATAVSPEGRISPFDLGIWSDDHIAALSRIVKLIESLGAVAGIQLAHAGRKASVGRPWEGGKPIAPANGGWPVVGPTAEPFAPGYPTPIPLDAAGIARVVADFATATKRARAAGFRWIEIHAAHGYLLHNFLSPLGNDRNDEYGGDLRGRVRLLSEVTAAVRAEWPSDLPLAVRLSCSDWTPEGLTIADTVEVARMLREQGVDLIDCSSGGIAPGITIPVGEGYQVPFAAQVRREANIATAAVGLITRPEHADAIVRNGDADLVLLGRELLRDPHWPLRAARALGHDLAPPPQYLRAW
smiles,measurement,value
Cc1cc2nc3c(=O)[nH]c(=O)nc-3n(C[C@H](O)[C@H](O)[C@H](O)COP(=O)(O)O)c2cc1C [FMN],"X-ray crystal structure, 2.40 Å",The enzyme accommodates one molecule of FMN cofactor on the top of the β-barrel core
